# Assay results taken from patent US9119853B2, “Sanglifehrin based compounds” (priority 2010, dated 2015).
# Where two headings read alike, the source gives them in different places.
# Assays:
# [1] = test system: HCV genotype 1b I389luc-ubi-neo/NS3-3'/5.1 replicon in Huh5.2 cells; assay: microbe, parasite or virus in culture; format: cell-based, Hepatitis C Virus
# [2] = test system: peripheral blood mononuclear cells (PBMC); assay: Mixed lymphocyte reaction (MLR) for immunosuppressant activity; format: cell-based, human; conditions: 3H-thymidine proliferation; read-out: Human MLR IC50
# [3] = pH 7.4
# [4] = molecular target: CyPA (Homo sapiens, UniProt P62937); conditions: cited from earlier work
# CyPA, sequence (P62937 whole entry): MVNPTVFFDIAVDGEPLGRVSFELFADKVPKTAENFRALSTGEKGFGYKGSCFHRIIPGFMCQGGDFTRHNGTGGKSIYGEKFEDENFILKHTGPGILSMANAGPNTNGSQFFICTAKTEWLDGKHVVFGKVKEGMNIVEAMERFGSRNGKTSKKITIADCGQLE
# [5] = test system: Huh5.2 cells; assay: Anti-metabolic effect (MTS) in the replicon cell line
# [6] = molecular target: T1, GST-CypD / Con1 NS5A-His complex (Homo sapiens, UniProt P30405); assay: ELISA analysis of Cyp-NS5A interaction (CypD-NS5A disruption)
# T1 sequence (P30405 30-207, one chain of several): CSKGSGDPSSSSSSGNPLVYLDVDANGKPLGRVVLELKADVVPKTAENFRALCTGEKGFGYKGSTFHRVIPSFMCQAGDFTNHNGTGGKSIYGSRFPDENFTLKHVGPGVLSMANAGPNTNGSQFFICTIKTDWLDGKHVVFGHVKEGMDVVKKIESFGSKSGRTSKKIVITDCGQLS
# [7] = test system: HBV; conditions: Ptak et al. 2008; read-out: IC50 against HBV; cited from earlier work
# [8] = test system: HIV-1; conditions: clinical, Steyn et al., 2006, cited from earlier work
# [9] = test system: HIV (pNL4.3-GFP / pNL4.3-BaL-GFP) in CD4+ HeLa cells; assay: microbe, parasite or virus in culture; format: cell-based
# [10] = test system: HIV (pNL4.3-GFP / pNL4.3-BaL-GFP) in Jurkat cells; assay: microbe, parasite or virus in culture; format: cell-based; conditions: Human immunodeficiency virus 1, BAL, 48 h, read-out: T cells EC50
# [11] = test system: HIV (pNL4.3-GFP / pNL4.3-BaL-GFP) in CD4+ T-lymphocytes; assay: microbe, parasite or virus in culture; format: cell-based; conditions: Human immunodeficiency virus 1, BAL, T-lymphocyte, 48 h, read-out: CD4+ T-lymphocytes EC50
# [12] = test system: HIV (pNL4.3-GFP / pNL4.3-BaL-GFP) in macrophages; assay: microbe, parasite or virus in culture; format: cell-based; conditions: Human immunodeficiency virus 1, BAL, Macrophage, 48 h, read-out: Macrophages EC50
# [13] = test system: HBV in HepG2 2.2.15 cells; assay: HBV antiviral assay (HBV DNA by qPCR); format: cell-based, Hepatitis B Virus
# [14] = Cell viability (dye uptake) in the HBV assay; format: cell-based; conditions: human, HepG2 2.2.15 cells; read-out: TC50
# Protocol: (§1) Antiviral efficacy against HBV may be tested as follows: HepG2 2.2.15 cells are plated in 96-well microtiter plates. After 16-24 hours the confluent monolayer of HepG2 2.2.15 cells is washed and the medium is replaced with complete medium containing various concentrations of a test compound in triplicate (eg six half-log concentrations). Three days later the culture medium is replaced with fresh medium containing the appropriately diluted test compounds. Six days following the initial administration of the test compound, the cell culture supernatant is collected, treated with pronase and then used in a real-time quantitative TaqMan qPCR assay. The PCR-amplified HBV DNA is detected in real-time by monitoring increases in fluorescence signals that result from the exonucleolytic degradation of a quenched fluorescent probe molecule that hybridizes to the amplified HBV DNA. For each PCR amplification, a standard curve is simultaneously generated using dilutions of purified HBV DNA. Antiviral activity is calculated from the reduction in HBV DNA levels (IC50). A dye uptake assay is then employed to measure cell viability, which is used to calculate toxicity (TC50). The therapeutic index (TI) is calculated as TC50/IC50.
# [15] = test system: HepG2 2.2.15 cells; assay: Cell viability (dye uptake) in the HBV assay; format: cell-based; conditions: at concentrations up to 32 μM
# Protocol: as §1
# [16] = physchem; conditions: pH 7.4, aqueous buffer, kinetic from dmso stock
# [17] = molecular target: T1, GST-CypD / Con1 NS5A-His complex; assay: biochemical
# [18] = Anti-metabolic effect (MTS) in the replicon cell line; conditions: human
# [19] = Hepatitis C virus, Huh-5-2, 72 h
smiles,measurement,setting,value
"CC[C@H]1C[C@H](C)[C@@]2(NC1=O)O[C@@H](C[C@H](O)[C@@H](C)CC/C=C/C=C(\C)[C@@H]1C/C=C/C=C/[C@H](O)[C@H](C)[C@@H](O)[C@@H](CCC(C)=O)C(=O)N[C@@H](C(C)C)C(=O)N[C@@H](Cc3cccc(O)c3)C(=O)N3CCC[C@H](N3)C(=O)O1)[C@H](C)[C@H](O)[C@@H]2C [Sanglifehrin A, 5, Sanglifehrin A, reference compound]",EC50,[1]; read-out: EC50,318 nM
same,EC90,[1]; read-out: EC90,5500 nM
same,IC50,[2],215 nM
same,Solubility,[3],9.4 µM
same,higher affinity for CyPA compared to CsA,[4],approximately 20 fold
same,CC50,"[5]; Huh5.2 cells, MTS, 72 hours",9100 nM
same,cytotoxicity against the cell line (in words),[5]; as shown by CC50,more cytotoxicity
same,IC50,[6],370 nM
C/C=C/C[C@@H](C)[C@@H](O)[C@H]1C(=O)N[C@@H](CC)C(=O)N(C)[C@H](C)C(=O)N(CC)[C@@H](C(C)C)C(=O)N[C@@H](C(C)C)C(=O)N(C)[C@@H](CC(C)C)C(=O)N[C@@H](C)C(=O)N[C@H](C)C(=O)N(C)[C@@H](CC(C)C)C(=O)N(C)[C@@H](CC(C)C)C(=O)N(C)[C@@H](C(C)C)C(=O)N1C [DEBIO-025],IC50,[7],4100 nM
same,reduction of HIV-1 RNA levels,[8]; in nine patients,≥ 0.5 log10 copies/mL
same,reduction of HIV-1 RNA levels,[8]; in two patients,> 1 log10 copies/mL
CON(C)C(=O)/C=C/C=C(\C)[C@@H]1C/C=C/C=C/C=C(\C)[C@@H](O)[C@@H](CCC(C)=O)C(=O)N[C@@H](C(C)C)C(=O)N[C@@H](Cc2cccc(O)c2)C(=O)N2CCCC(N2)C(=O)O1 (stereo partly shown) [compound 29],Selectivity index (CC50/EC50),[1],68.4
same,potency in the Huh5.2 replicon assay (in words),[1],very potent
same,EC50,[1]; [19],293 nM
same,EC90,[1]; [19],1500 nM
same,EC50,"[9]; Human immunodeficiency virus 1, BAL, HeLa, 48 h, read-out: HeLa cells EC50",400 nM
same,"potency at inhibiting HIV infection compared to cyclosporine A, 1 (in words)",[9]; four cell types,significantly more potent
same,EC50,[10],200 nM
same,EC50,[11],210 nM
same,EC50,[12],310 nM
same,inhibiting replication of HBV (in words),[13],remarkably potent
same,EC50,"[13]; Hepatitis B virus, HepG2 2.2.15, six days, read-out: HBV EC50",< 100 nM
same,CC50 at 6 days,[14],> 32000 nM
same,cytotoxicity in HBV assay (in words),[15],no cytotoxicity
same,Solubility,[16],66 µM
same,IC50,[17],250 nM
same,CC50 at 72 h,[18],20200 nM
same,disruption of the CypD-NS5A complex (in words),[6],potent disruption
